Tests used:
Rattus norvegicus [1] = test: Percent change in tidal volume expressed in microL in anesthetized rats by i.v. administration; assay type: functional
Rattus norvegicus [2] = test: Maximum rate of rise of the left ventricular isovolumetric pressure in anesthetized rats by i.v. administration; assay type: functional, Heart left ventricle
Rattus norvegicus [3] = test: Percent change in diastolic blood pressure (mmHg)in anesthetized rats by i.v. administration; assay type: functional, Artery
Rattus norvegicus [4] = test: Percent change in respiratory frequency (RF) expressed in beats / min in anesthetized rats by i.v. administration; assay type: functional
Rattus norvegicus [5] = test: Percent change in systolic blood pressure (mmHg)in anesthetized rats by i.v. administration; assay type: functional, Artery
Rattus norvegicus [6] = test: Percent change in heart rate expressed in beats / min in anesthetized rats by i.v. administration; assay type: functional
Rattus norvegicus [7] = test: Maximum rate of rise of the left ventricular isovolumetric pressure (dP/dt, an index of cardiac inotropism in mmHg/sec)in anesthetized rats by i.v. administration; assay type: functional, Heart left ventricle

Row | Structure (SMILES) | Change (Rattus norvegicus [1]) | Change (Rattus norvegicus [2]) | Change (Rattus norvegicus [3]) | Change (Rattus norvegicus [4]) | Change (Rattus norvegicus [5]) | Change (Rattus norvegicus [6]) | Change (Rattus norvegicus [7])
1 | COc1ccc(/C=C/C(=O)NCCCC/N=C(\N)NCC=C(C)C)cc1OC | 41% | 57% | -29% | 21% | -26% | 5% | 
2 | COc1ccc(/C=C/C(=O)NCCCCN=C(N)N)cc1OC | 12% | 11% | -8% | 4% | -8% | 0% | 
3 | CC(C)=CCNC(=N)NCCCCN | 11% | 23% | -17% | 4% | -11% | -4% | 
4 | NCCCCN=C(N)N [AGMATINE] | 14% | 16% | -10% | 12% | -8% | 0% | 
5 | Clc1cccc(Cl)c1NC1=NCCN1 [CLONIDINE] |  | -21% | -17% |  | -16% | -15% | 
6 | CC(C)=CCN=C(N)N [GALEGINE] | 31% | 32% | -33% | 70% | -27% | -27% | 
7 | N=C(N)NCCN1CCCCCCC1 [GUANETHIDINE] |  | -17% | -24% |  | -26% | -7% | 
8 | C[N+](C)(C)CCCCCC[N+](C)(C)C.[Cl-].[Cl-] [HEXAMETHONIUM CHLORIDE] |  |  | -43% |  | -42% | -13% | -69%
9 | NCCc1c[nH]cn1 [HISTAMINE] |  |  | -26% |  | -25% | -3% | -16%
10 | COc1ccc(Cc2nccc3cc(OC)c(OC)cc23)cc1OC [PAPAVERINE] |  |  | -16% |  | -18% | -5% | -19%
11 | COC(=O)[C@H]1[C@H]2C[C@@H]3c4[nH]c5cc(OC)ccc5c4CCN3C[C@H]2C[C@@H](OC(=O)c2cc(OC)c(OC)c(OC)c2)[C@@H]1OC [RESERPINE] |  |  | -32% |  | -31% | -15% | -22%

From ChEMBL document CHEMBL1132516, “Further hypotensive metabolites from Verbesina caracasana” (1999)
